Results on 11 compounds are retold here after PubChem BioAssay (NCI).

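96-well plates; 48 h exposure; 5 concentrations. Endpoints by linear interpolation between flanking doses. Not reached: highest tested concentration assigned. GI50 = concentration required for 50% inhibition of growth. Definition used: TGI = concentration required for complete inhibition of growth.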

Holding throughout (assay): growth of human tumour cells (NCI), 48 h
Test [1] deals with CCRF-CEM leukemia.
Test [2] relates to LOX IMVI melanoma.
The test system of test [3] is ACHN renal.
Test [4] has as its system SR leukemia.
The subject of test [5] is HOP-92 NSCLC.
The subject of test [6] is SW-620 colon.
The test system of test [7] is EKVX NSCLC.
Test [8] deals with SK-MEL-2 melanoma.
The subject of test [9] is UACC-62 melanoma.

For the compound `O=C1Nc2c(ccc(Cl)c2Cl)/C1=C\c1cc(C(F)(F)F)cc(C(F)(F)F)c1`, the GI50 in test [1] is 0.959 µM; in [2], 1.12 µM; in [3], 3.18 µM; in [4] it was 0.392 µM; in [5], 1.44 µM; in [6] it was 1.66 µM. Moreover, the GI50 was 1.93 µM in test [7], 4.11 µM in [8] and 1.77 µM in test [9]. Also, the TGI came out at 2.58 µM in test [1]; 3.69 µM in test [2]; 11.3 µM in test [3]; 1.9 µM in test [4]; 7.42 µM in test [5]; 6.1 µM in test [6]. In addition, the TGI in test [7] is 11.2 µM; in test [8] it was 10.9 µM; in [9] it was 7.41 µM.

Consider `O=C(Nc1nc(-c2ccccc2Cl)cs1)c1cc(-c2ccc(Cl)cc2)nc2ccc(Cl)cc12`, for which the GI50 was 3.54 µM in test [1]; 0.457 µM in test [2]; 3.84 µM in [3]; 3.15 µM in [4]; 1.42 µM in [5]; 4.01 µM in test [6]. Also, the GI50 was 7.18 µM in [7], 7.81 µM in test [8] and 2.47 µM in test [9]. The TGI was over 100 µM in test [1]; 20.8 µM in [2]; 78.2 µM in test [3]; over 100 µM in test [4]; 8.43 µM in [5]; over 100 µM in [6]. Also, the TGI in test [7] was over 100 µM; in [8], over 100 µM; in test [9], 26 µM.

`COc1cc(/C=C2\CC3C4CCC5=CC(=O)CC[C@]5(C)C4CC[C@]3(C)C2=O)ccc1OCCN1CCCCC1` (stereo partly specified): the GI50 in [2] is 1.42 µM; in test [3], 3.84 µM; in [5], 1.45 µM; in test [6], 2.93 µM; in test [7], 6.3 µM; in test [8], 22 µM. In addition, the GI50 in [9] was 2.39 µM. Also, the TGI in [2] is 3.3 µM; in test [3], 13.1 µM; in test [5], 8.34 µM; in test [6] it was 11.7 µM; in test [7], 21.8 µM; in test [8], over 100 µM. Besides, in test [9], the TGI turned out to be 5.84 µM.

For `COc1c(OC)c(OC)c(-c2cc(=O)c3c(OC)c(OC)c(OC)c(OC)c3o2)c(OC)c1OC`, the TGI in [1] is over 100 µM; in test [2] it was over 100 µM; in [3], over 100 µM; in [4], over 100 µM; in [5], 44.9 µM; in [6], over 100 µM. The TGI in test [7], in test [8] and in test [9] was over 100 µM each time.

Turning to `CC(C)(N)C(=O)N[C@@H]1C(=O)N2[C@@H]1SC(C)(C)[C@@H]2C(=O)O`, the TGI in [2], in [3], in [4], in [5], in test [6] and in [7] was over 100 µM each time. The TGI in test [8] and in test [9] was over 100 µM each time.

In the case of `COc1ccc(Nc2ncccc2C(=O)NCc2cn(Cc3cccc(Oc4ccccc4)c3)nn2)c(OC)c1`, the GI50 was 2.08 µM in [1]; 2.54 µM in test [2]; 3.94 µM in test [3]; 36.1 µM in [5]; 2.35 µM in test [6]; 9.61 µM in [7]. For the same compound, the GI50 in test [8] was 5.03 µM; in test [9] it was 1.19 µM. The TGI in [1], in [2], in test [3], in [5], in test [6] and in test [7] was over 100 µM each time. Moreover, the TGI in test [8] was over 100 µM; in [9] it was over 29.6 µM.

Consider `CCC1OC(=O)CC(O)C(C)C(OC2OC(C)CC(N(C)C)C2O)C(CC=O)CC(C)C(=O)/C=C/C2(C)OC2C1C` (stereo unspecified), for which the TGI in test [1] stood at 26.2 µM; in test [2] it was 48 µM; in test [3], 56.1 µM; in test [4], 36.6 µM; in test [5], 64.6 µM; in test [6] it was 34.8 µM. Besides, the TGI was 44.8 µM in [7], over 100 µM in test [8] and 28.9 µM in test [9].

In the case of `O=C(O)C1C2CCC(O2)C1C(=O)NCc1cccnc1` (stereo unspecified), the TGI in test [1], in test [2], in test [3], in test [4], in [6] and in test [7] was over 100 µM in each case. Moreover, the TGI in test [8] and in [9] was over 100 µM throughout.

For `Cc1nc2cc(Nc3nc(Nc4ccc(F)cc4)nc(N4CCCC4)n3)ccc2n1Cc1ccccc1`, the GI50 in test [1] is 2.38 µM; in test [2], 1.84 µM; in [3], 2.19 µM; in [5] it was 1.07 µM; in test [6] it was 1.66 µM; in test [8], 1.69 µM. Besides, in test [9], the GI50 is 1.62 µM. The TGI in [1] turned out to be 5.6 µM; in test [2], 3.36 µM; in test [3], 5.41 µM; in [5], 2.47 µM; in test [6], 3.14 µM; in test [8], 3.33 µM. In test [9], this compound registered a TGI of 2.99 µM.

Consider `CC/C(=C(/CC)c1ccc(O)cc1)c1ccc(O)cc1`, for which the GI50 is 5.75 µM in test [2]; 6.07 µM in test [3]; 3.98 µM in test [4]; 5.1 µM in test [5]; 3.88 µM in [6]; 5.66 µM in test [7]. For the same compound, the GI50 in [8] is 9.23 µM; in test [9] it was 3.89 µM. Also, the TGI stood at 19.4 µM in [2]; 18.3 µM in test [3]; 29.6 µM in test [4]; 17.2 µM in test [5]; 14.5 µM in test [6]; 34.7 µM in [7]. The TGI in [8] was 26.7 µM; in [9], 16.8 µM.

Consider `NNc1ncnc2cccc(Cl)c12`, for which the TGI in test [1] is over 100 µM; in test [3], over 100 µM; in [4], over 100 µM; in test [6], over 100 µM; in test [7], 32 µM; in test [9], over 100 µM.
